# From PubChem BioAssay AID463206 (Broad Institute, 2010)
# The source made the active and inactive calls.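 Rule for the calls: active = caspase luminescence falls with dose and the half-maximal concentration AC50 from the fitted curve is at or below a set limit; inconclusive = flat fit at 30 to 70% signal loss, or invalid fit; inactive = AC50 above the limit, or signal rises instead.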
# System: INS-1E cytokine-induced caspase-3/7, Caspase-Glo luminescence, 48 h
# Experiment: suppression of cytokine-driven beta-cell apoptosis – INS-1E rat cells, luminescence, orthogonal assay for beta-cell apoptosis protection project, dose response (AID 463206)
row,Structure (SMILES),AC50
1,C=C1C(=O)O[C@@H]2C[C@@H](C)[C@@H]3C=CC(=O)[C@@]3(C)[C@@H](OC(C)=O)[C@H]12,> 26 µM (inactive)
2,CC(C)n1cnc2c(NCc3ccccc3)cc(N[C@H](C)CO)cc21,> 26 µM (inactive)
3,S=C(c1cn(CCOc2cccc3ccccc23)c2ccccc12)N1CCCC1,> 26 µM (inactive)
4,Cc1ccccc1Nc1c(-c2ccccn2)nc2c(C)cccn12,> 26 µM (inactive)
5,COc1ccccc1-n1c(-c2ccccc2)c[n+]2c1CCc1ccccc1-2,> 26 µM (inactive)
6,Clc1ccc(C(c2ccc(Cl)cc2)n2cc[n+](CC(OCc3ccc(Cl)cc3Cl)c3ccc(Cl)cc3Cl)c2)cc1 (stereo unspecified),> 26 µM (inactive)
7,COc1cc(OC)nc(-n2ncc(Br)c(Br)c2=O)n1,> 26 µM (inactive)
8,Cc1ccc(C(=O)c2c(C)oc3c2C(=O)C(=O)c2ccccc2-3)cc1,> 26 µM (inactive)
9,O=C(N/N=C/c1cc(Br)ccc1O)C(=O)Nc1ccccc1OC(F)(F)C(F)F,> 26 µM (inactive)
10,O=C(c1ccccc1)C(CCC(CN1CCOCC1)C(=O)c1ccccc1)CN1CCOCC1 (stereo unspecified),> 26 µM (inactive)
11,O=C(NCc1cccnc1)Nc1ccc([N+](=O)[O-])cc1,> 26 µM (inactive)
12,C=C1C(=O)O[C@@H]2C[C@@H](C)[C@@H]3C4OC4C(=O)[C@@]3(C)[C@@H](O)[C@H]12 (stereo partly specified),> 26 µM (inactive)
13,Cc1ccccc1Oc1nc(-c2ccccn2)nc2ccccc12,> 26 µM (inactive)
14,COc1cc2ccccc2cc1C(=O)Nc1sc2c(c1C(N)=O)CCN(C(C)C)C2,9.32 µM
15,COC(=O)c1nc(-c2ccc3c(n2)C(=O)C(N)=C(OC)C3=O)c(N)c(-c2ccc(OC)c(OC)c2O)c1C,> 26 µM (inactive)
16,C/C(=N\NC(=O)C(=O)Nc1cccc(Cl)c1)c1ccncc1,> 26 µM (inactive)
17,Nc1ccc(Br)cc1-c1nc2ccccc2[nH]c1=O,> 26 µM (inactive)
18,C=C1C(=O)C=C2CN(C(=O)c3ccccc3)[C@@](Cc3ccc(F)cc3)(C(=O)OC)[C@@H]12,> 26 µM (inactive)
19,CCc1ccc(OCC(=O)NC(NC(=S)Nc2ccc(C)cc2C)C(Cl)(Cl)Cl)cc1 (stereo unspecified),> 26 µM (inactive)
20,CCOc1ccccc1NC(=O)C(=O)N/N=C/c1cc(Br)ccc1O,> 26 µM (inactive)
21,C/C(=N\NC(=O)c1cc(-c2cccs2)nc2ccccc12)c1ccccn1,> 26 µM (inactive)
22,CN(C)CCCN(C(=O)COc1ccc(Cl)cc1)c1nc2cc3c(cc2s1)OCO3,> 26 µM (inactive)

row,Structure (SMILES),AC50
1,O=C(N/N=C/c1ccccc1O)C1CC(=O)N(c2ccc(Cl)cc2)C1 (stereo unspecified),> 26 µM (inactive)
2,CC(=O)N(Cc1ccc(F)cc1)C1=C(NCCc2ccccc2)C(=O)c2ccccc2C1=O,> 26 µM (inactive)
3,Oc1ccc(Nc2nc(-c3ccc4ccccc4c3)cs2)cc1,> 26 µM (inactive)
4,O=C(Nc1ccc(OC(F)F)cc1)Nc1cccc(C(F)(F)F)c1,> 26 µM (inactive)
5,CCCC(=O)NC(NC(=S)Nc1ccc(N=Nc2ccccc2)cc1)C(Cl)(Cl)Cl (stereo unspecified),> 26 µM (inactive)
6,C/C(=N\NC(=O)c1ccc(Cl)c(Cl)c1)c1ccccn1,> 26 µM (inactive)
7,C=CCn1cc(/C=C/c2cc[n+](C)cc2)c2ccccc21,> 26 µM (inactive)
8,CCCC(=O)NC(c1ccc(C)cc1)c1ccc2cccnc2c1O (stereo unspecified),> 26 µM (inactive)
9,CC1CC(=O)c2c(cc3c(-c4c(O)cc(O)c5c(O)c6c(cc45)OC(C)CC6=O)c(O)cc(O)c3c2O)O1 (stereo unspecified),> 26 µM (inactive)
10,C=CC[C@@H](CC(=O)N(CCO)Cc1ccccc1)C(=O)N[C@H](COC(=O)[C@@H](CC=C)CC(=O)OC(C)(C)C)c1ccccc1,> 26 µM (inactive)
11,COc1cc(C)c(C(=O)CC(=O)c2c(C)cc(OC)cc2C)c(C)c1,> 26 µM (inactive)
12,N=c1ccn(Cc2ccc(Cl)cc2Cl)cc1,> 26 µM (inactive)
13,COc1cccc(/C=N/Nc2ncc(C(F)(F)F)cc2Cl)c1O,> 26 µM (inactive)
14,O=C(CSc1nc2ccccc2c(=O)n1-c1ccccc1)N1CCc2ccccc2C1,> 26 µM (inactive)
15,COc1ccc(-[n+]2c(-c3ccccc3)cc(-c3ccccc3)cc2-c2ccccc2)cc1,> 26 µM (inactive)
16,CC1=NN(c2ccc(C)c(C)c2)C(=O)/C1=C\C=C\c1ccc([N+](=O)[O-])o1,> 26 µM (inactive)
17,O=C(Nc1ccc(OCC(=O)N2CCC(Cc3ccccc3)CC2)cc1)c1ccco1,> 26 µM (inactive)
18,Cc1ccc(-c2c(C#N)c(N)n3c(nc4ccccc43)c2C#N)cc1,> 26 µM (inactive)
19,COc1ccccc1C(=O)Nc1nc(-c2ccc(S(=O)(=O)N3CCOCC3)cc2)cs1,> 26 µM (inactive)
20,O=c1c(Cl)c2oc3ccccc3nc-2c2ccccc12,> 26 µM (inactive)
21,Oc1ccc(CNc2ccccc2)c2cccnc12,> 26 µM (inactive)
22,O=C(/C=C/NNC(=O)c1ccccc1)c1ccc([N+](=O)[O-])cc1,> 26 µM (inactive)

row,Structure (SMILES),AC50
1,Cc1occc1C(=O)N/N=C/c1ccc2c(c1)OCO2,> 26 µM (inactive)
2,Cc1ccc(/C=C/C(=O)c2ccc([N+](=O)[O-])o2)cc1,> 26 µM (inactive)
3,Cc1cc(OCc2nc(-c3ccc(NC(=O)c4cccnc4)cc3)no2)ccc1Cl,> 26 µM (inactive)
4,CCCCCCCCCCOC(=O)Cn1c(COc2ccc(OC)cc2)[n+](C)c2ccccc21,> 26 µM (inactive)
5,Cc1cc(C)c[n+](C2=C([O-])c3ccccc3C(=O)/C2=N\S(=O)(=O)c2cccs2)c1,> 26 µM (inactive)
6,CC1CCC(C(C)C)C(OC(=O)Cn2c(-c3ccc(Br)cc3)[n+](C)c3ccccc32)C1 (stereo unspecified),> 26 µM (inactive)
7,Cc1nc2ccccc2n1/N=C/c1ccc([N+](=O)[O-])s1,> 26 µM (inactive)
8,Nc1c(N(CCC2=CCCCC2)C(=O)COc2ccc(F)cc2)c(=O)[nH]c(=O)n1Cc1ccccc1,> 26 µM (inactive)
9,CC(=O)Nc1sc2c(c1-c1nc3ccccc3s1)CN(C(C)C)CC2,> 26 µM (inactive)
10,CCC(=O)NC(c1cccs1)c1cc(Cl)c2cccnc2c1O (stereo unspecified),> 26 µM (inactive)
11,Cc1cc(C)c2c(N)c3cccc(C)c3nc2n1,4.47 µM
12,CCN(CC)S(=O)(=O)c1cc(C)ccc1NC(=S)Nc1cccnc1,> 26 µM (inactive)
13,CCc1ccc(S(=O)(=O)Nc2ccc(O)c3ccccc23)cc1,> 26 µM (inactive)
14,CC(C)OCCCNc1ncnc2c1[nH]c1ccccc12,> 26 µM (inactive)
15,COc1ccc(CC(=O)Nc2cccc(-c3nnc(-c4cccc(C)c4)o3)c2)cc1OC,> 26 µM (inactive)
16,O=C(NNC(=O)c1cccnc1SCc1cccc([N+](=O)[O-])c1)c1ccc(F)cc1,> 26 µM (inactive)
17,CCc1ccc(NC(=O)CSc2ccc(-c3ccccn3)nn2)cc1,> 26 µM (inactive)
18,CN1/C(=C\P(=O)(N(C)C)N(C)C)C(C)(C)c2ccccc21,> 26 µM (inactive)
19,COc1ccc(C(=O)N/N=C/c2cc(Br)ccc2O)cc1OC,> 26 µM (inactive)
20,CC(C)(C)OC(=O)NCCCCCc1cn([C@@H](CO)C(=O)NCCCCCCCCCCC(=O)N2CCN(C(=O)OC(C)(C)C)CC2)nn1,> 26 µM (inactive)
21,NNc1nc(-c2ccccc2)cc(-c2ccccc2O)n1,> 26 µM (inactive)
22,Cc1ccccc1C(=O)N1CCN(c2ccc(NC(=O)c3cccnc3)cc2)CC1,> 26 µM (inactive)
